Results taken from patent US20260256136A1, “STABILIZATION OF ALDEHYDES AND/OR AN ALCOHOLS” (priority 2022, published 2026).
Read-outs that look alike come from different tables or passages of the source.

Assays:
[1] = Storage test of aldehyde mixture containing 4-hydroxy-TEMPO with additive (Example 4); format: physicochemical; conditions: for Heptane / Z11-16:OH / 16:Acid / OH tempo / Z9-16:Ald / 15-1:Ald / 16:Ald / Z11-16:Ald: after 55° C. 14 days without cap; for Heptane: before test 0.04, without additive 0.04; for Z11-16:OH: before test 0.27, without additive 0.06; for 16:Acid: before test 1.05, without additive 6.14; for OH tempo: before test 1.19, without additive 1.11; for Z9-16:Ald: before test 5.09, without additive 3.71; for 15-1:Ald: before test 7.27, without additive 5.83; for 16:Ald: before test 8.41, without additive 6.64; for Z11-16:Ald: before test 75.31, without additive 57.21, in % (unit assumed)
Protocol: To a mixture of aldehydes containing; 4-hydroxy-TEMPO (4-hydroxy-2,2,6,6-tetramethylpiperidin-1-oxyl), (Z)-10-pentenenal, (Z)-9-hexadecenal, (Z)-11-hexadecenal, hexadecanal, (Z)-11-hexadecen-1-ol and (Z)-11-hexadecenoic acid in the composition listed in table 4 below was added up to 1% of an additive in table below. The mixture was thoroughly mixed and heated without cap in an oven at 55° C. for 14 days.

[2] = Storage test of aldehyde mixture containing 4-hydroxy-TEMPO and 10 ppm Copper with additive (Example 3); conditions: 10 ppm Copper; for suppressing acid formation and degradation of the aldehydes: 55 C 14 days; for Z11-16:OH / Z10-15:Ald / 16:Acid / Z9-16:Ald / 16:Ald / Z11-16:Ald: after 55 C 14 days without cap; for Z11-16:OH: before test 2.16, blank 1.44; for Z10-15:Ald: before test 2.61, blank 2.72; for 16:Acid: before test 3.01, blank 7.94; for Z9-16:Ald: before test 5.33, blank 3.91; for 16:Ald: before test 8.16, blank 6.48; for Z11-16:Ald: before test 74.98, blank 58.18
Protocol: To a mixture of aldehydes containing; 4-hydroxy-TEMPO (4-hydroxy-2,2,6,6-tetramethylpiperidin-1-oxyl), (Z)-10-pentenenal, (Z)-9-hexadecenal, (Z)-11-hexadecenal, hexadecanal, (Z)-11-hexadecen-1-ol (Z)-11-hexadecenoic acid and 10 ppm Copper in the composition listed in table 3 below was added up to 1% of an additive in table below. The mixture was thoroughly mixed and heated without cap in an oven at 55 C for 14 days.

[3] = Accelerated storage test of aldehyde mixture with additive, 40 ppm Cu (Example 1); format: physicochemical
Protocol: To a mixture of aldehydes containing; (Z)-9-hexadecenal, (Z)-11-hexadecenal, hexadecanal, (Z)-11-hexadecen-1-ol, (Z)-11-hexadecenoic acid and 40 ppm Cu was added an additive as indicated in table 1 below. The mixture was thoroughly mixed and heated without cap in an oven at 55° C. for 14 days as an accelerated storage test.

[4] = Accelerated storage test of aldehyde mixture with additive, 10 ppm Cu (Example 2)
Protocol: The term “accelerated storage test” as used herein refers to a well known protocol for investigating the stability of a particular composition. The protocol is described in for example the memorandum dated 16 Nov. 2012 from The United States Environmental Protection Agency Washington, D.C. 20460 with the subject title “Accelerated Storage Stability and Corrosion Characteristics Study Protocol”. The protocol evaluates product stability at 54° C.±2° C. for 14 days.

Compound | suppressing acid formation and/or degradation of the aldehydes ([1]; 55° C. 14 days) | Heptane [1] | Z11-16:OH [1] | 16:Acid [1] | OH tempo [1] | Z9-16:Ald [1] | 15-1:Ald [1] | 16:Ald [1] | Z11-16:Ald [1] | suppressing acid formation and degradation of the aldehydes [2] | Z11-16:OH [2] | Z10-15:Ald [2] | 16:Acid [2] | Z9-16:Ald [2] | 16:Ald [2] | Z11-16:Ald [2] | also measured
[Na+].[O-][n+]1ccccc1[S-] [Sodium pyrithione] | particularly efficient at suppressing acid formation and/or degradation of the aldehydes | 0.04 | 0.24 | 1.58 | 1.05 | 5.08 | 6.71 | 8.29 | 74.65 | particularly efficient at suppressing acid formation and degradation of the aldehydes | 2.14 | 2.87 | 3.39 | 5.18 | 8.07 | 74.71 | suppressing degradation ([3]; 55° C. 14 days): particularly efficient at suppressing degradation; Z9-16:Ald ([3]; after 55° C. 14 days without cap, before test 4.3, blank 3.066023): 3.083; C16:Acid ([3]; after 55° C. 14 days without cap, before test 6.7, blank 18.84135): 8.924; 16:Ald ([3]; after 55° C. 14 days without cap, before test 7.5, blank 6.659339): 6.675; Z11-16Ald ([3]; after 55° C. 14 days without cap, before test 69.4, blank 54.83784, in % (unit assumed)): 57.02; suppressing degradation ([4]; 55° C. 14 days): highly efficient at suppressing degradation; C16:Acid ([4]; after 55° C. 14 days without cap, before test 1.05, blank 17.72): 3.34; Z9-16:Ald ([4]; after 55° C. 14 days without cap, before test 5.09, blank 3.05): 4.20; 16:Ald ([4]; after 55° C. 14 days without cap, before test 8.41, blank 6.60): 8.73; Z11-16Ald ([4]; after 55° C. 14 days without cap, before test 75.31, blank 54.31): 76.47
CC1(C)CC(=O)CC(C)(C)N1 [2,2,6,6-tetramethyl-4-piperidone] | – | 0.04 | 0.15 | 4.02 | 1.11 | 4.03 | 6.27 | 6.95 | 61.06 | – | 1.75 | 3.14 | 5.70 | 3.83 | 6.41 | 59.27 | –
Zinc Pyrithione | particularly efficient at suppressing acid formation and/or degradation of the aldehydes | 0.04 | 0.13 | 2.29 | 1.17 | 4.57 | 6.78 | 7.72 | 65.87 | particularly efficient at suppressing acid formation and degradation of the aldehydes | 1.53 | 3.04 | 5.28 | 4.44 | 7.01 | 64.80 | –
SC1=NCCS1 [2-thiazoline-2-thiol] | – | 0.04 | 0.00 | 1.69 | 0.83 | 4.64 | 6.26 | 8.08 | 68.79 | – | 2.18 | 2.48 | 2.74 | 5.06 | 8.21 | 75.24 | suppressing acid formation and/or degradation of the aldehydes [1]: particularly efficient at suppressing acid formation and/or degradation of the aldehydes
